Measurements published in PubChem BioAssay AID1918941 (Molecular Pharmacology Branch, DTP, NCI, 2023).

Test system: SW 1271 complex spheroids, viability
Assay: Anticancer human tumor SW 1271 cell line growth inhibition [LSD1];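 further: spheroids exposed to agents for 7 days before luminescence read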;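 on viability, T/C: 100% = DMSO vehicle control viability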
Conditions: for IC50: curve of first compound; for viability, T/C: stronger effect = lower value
Description: Multicellular complex tumor spheroid response to LSD1 Inhibitor Iadademstat in combination with a variety of drugs and investigational agents in selected tumor cell lines
The current study was undertaken to assess response to LSD1 inhibitors in combination with standard-of-care drugs and investigational agents in solid tumor complex spheroid models as well as in the K-562 leukemia. Complex spheroids include a stromal component modeled by human endothelial cells (HUVEC) and fibroblasts modeled by human mesenchymal stem cells (MSCs). The concentration ranges selected for each drug and investigational agent were based upon clinically achievable concentrations if the clinical Cmax of the agent was known.
Compounds. The drugs and investigational agents used in this study are listed on Table 1. All of the agents used, including staurosporine (NSC755774) and gemcitabine (NSC613327), were obtained from the Developmental Therapeutics Program, NCI. FDA-approved anticancer drugs are available from the NCI at http://dtp.nci.nih.gov/branches/dscb/oncology_drugset_explanation.html. Drugs and investigational agents were >95% pure by proton nuclear magnetic resonance (NMR) and liquid chromatography/mass spectrometry (LC/MS). Stock solutions were prepared at 400x in DMSO, stored at -70 degrees C, and diluted in fresh medium prior to their use. The final concentration of DMSO in cell culture wells never exceeded 0.25% (v/v). The FDA-approved anticancer drug set is available from the Developmental Therapeutics Program at https://dtp.cancer.gov/organization/dscb/obtaining/available_plates.htm. All drugs and investigational agents were tested over a range starting from a high concentration at or near the clinical Cmax and decreasing in half-log increments. If the clinical Cmax for an agent had not been determined, the highest concentration tested was 10 microM.
Cell Lines. The patient-derived cancer cell (PDC) lines: 292921-168-R-J2-PDC, K24384-001-R-PDC, and 521955-158-R2-J5-PDC pancreatic carcinomas, 556581-035-R-J1 ovarian carcinoma, 324938-238-R-J1-PDC, 855422-203-R-J1-PDC and 883617-216-R-J1-PDC urothelial bladder carcinomas, 743489-274-T-PDC renal cell carcinoma, 138582-R-J1 Merkel cell tumor, K60290-347-R-J1 and K57222-313-R-J1-PDC glioblastomas, 653999-131-R-J2-PDC, LG0703-F948-PDC, and 349418-098-R-PDC non-small cell lung carcinomas, 885512-296-R-J2-PDC, 171881-019-R-J1-PDC breast carcinomas and 186277-243-T-J2-PDC and 233499-124-R-J2-PDC colon carcinomas were obtained from the NCI Patient-Derived Models Repository (PDMR, https://pdmr.cancer.gov). The established cell lines NCI/ADR-RES (RRID:CVCL_14520 and OVCAR-5 (RRID:CVCL_1628) ovarian carcinomas, 786-O (RRID:CVCL_1051) and A498 (RRID:CVCL_A498) renal cell carcinoma, NCI-H211 (ATCC, cat. CRL-5824; RRID:CVCL_1529), NCI-H196 (ATCC, cat. CRL-5823, RRID:CVCL_1509), SW 1271 (ATCC, cat. CRL-2177, RRID:CVCL_1716) and NCI-H1876 (ATCC, cat. CRL-5902, RRID:CVCL_1503) small cell lung carcinomas, MDA-MB-231 (RRID:CVCL_0062) and MDA-MB-468 (RRID:CVCL_0419)breast carcinomas (10-12). Pooled donor human umbilical vein endothelial cells (HUVEC, Lonza, cat. CC-2519) and human mesenchymal stem cells (hMSC, Lonza, cat. PT-2501) were purchased from Lonza (Walkersville, MD).
Cell Culture. All cells were maintained in an incubator at 37 degrees C and 5% CO2 with 95% humidity. The PDC lines were cultured according to standard operating procedures established by the NCI PDMR (https://pdmr.cancer.gov). Briefly all PDCs were thawed and cultured in Matrigel-coated flasks prepared with a working solution of 1X Ham's F-12 nutrient mix, without supplementation (Invitrogen, Waltham, MA, cat. 11765054), 100 U/mL penicillin-streptomycin (Invitrogen, cat. 15140122), and 2.5% Matrigel (Corning Inc., Corning, NY, cat. 354248) for the first three passages. […]

[1] = second compound 0.1 µM, first compound 0.000949 µM
[2] = second compound 0.1 µM, first compound 0.003 µM
[3] = second compound 0.1 µM, first compound 0.00949 µM
[4] = second compound 0.1 µM, first compound 0.03 µM
[5] = second compound 0.1 µM, first compound 0.0949 µM
[6] = second compound 0.1 µM, first compound 0.3 µM
[7] = second compound 0.316 µM, first compound 0.000949 µM
[8] = second compound 0.316 µM, first compound 0.003 µM
[9] = second compound 0.316 µM, first compound 0.00949 µM
[10] = second compound 0.316 µM, first compound 0.03 µM
[11] = second compound 0.316 µM, first compound 0.0949 µM
[12] = second compound 0.316 µM, first compound 0.3 µM
[13] = second compound 1 µM, first compound 0.000949 µM
[14] = second compound 1 µM, first compound 0.003 µM
[15] = second compound 1 µM, first compound 0.00949 µM
[16] = second compound 1 µM, first compound 0.03 µM
[17] = second compound 1 µM, first compound 0.0949 µM
[18] = second compound 1 µM, first compound 0.3 µM
[19] = second compound 3.16 µM, first compound 0.000949 µM
[20] = second compound 3.16 µM, first compound 0.003 µM
[21] = second compound 3.16 µM, first compound 0.00949 µM
[22] = second compound 3.16 µM, first compound 0.03 µM
[23] = second compound 3.16 µM, first compound 0.0949 µM
[24] = second compound 3.16 µM, first compound 0.3 µM
[25] = second compound 10 µM, first compound 0.000949 µM
[26] = second compound 10 µM, first compound 0.003 µM
[27] = second compound 10 µM, first compound 0.00949 µM
[28] = second compound 10 µM, first compound 0.03 µM
[29] = second compound 10 µM, first compound 0.0949 µM
[30] = second compound 10 µM, first compound 0.3 µM

In the case of CCc1c2c(nc3ccc(O)cc13)-c1cc3c(c(=O)n1C2)COC(=O)[C@]3(O)CC + NC1CC1c1ccc(-c2cccc(O)c2)cc1, the IC50 (second compound 0.1 µM) is reported as < 0.949 nM, the IC50 (second compound 0.316 µM) is reported as 1.07 nM and the IC50 (second compound 1 µM) is reported as < 0.949 nM. For the same molecule, the IC50 (second compound 3.16 µM) was < 0.949 nM, the IC50 (second compound 10 µM) was 2.83 nM and the viability, T/C [1] was 48.1%. For the same molecule, the viability, T/C [2] was 46%, the viability, T/C [3] was 26.5% and the viability, T/C [4] was 8.18%. The viability, T/C [5] was 8.27%, the viability, T/C [6] was 3.92% and the viability, T/C [7] was 50.5%. For the same molecule, the viability, T/C [8] was 45.4%, the viability, T/C [9] was 25.9% and the viability, T/C [10] was 10.3%. It also gave a viability, T/C [11] of 8.68%, a viability, T/C [12] of 6.46% and a viability, T/C [13] of 49.4%. The viability, T/C [14] was 43%, the viability, T/C [15] was 27.4% and the viability, T/C [16] was 9.38%. The viability, T/C [17] was 5.98%, the viability, T/C [18] was 3.79% and the viability, T/C [19] was 48.2%. The viability, T/C [20] was 50.2%, the viability, T/C [21] was 26.7% and the viability, T/C [22] was 9.15%. It also gave a viability, T/C [23] of 5.19%, a viability, T/C [24] of 5.82% and a viability, T/C [25] of 56.6%. The viability, T/C [26] was 48.5%, the viability, T/C [27] was 30.1% and the viability, T/C [28] was 9.23%. For the same molecule, the viability, T/C [29] was 7.28% and the viability, T/C [30] was 5.03%.

Nc1ccn(C2OC(CO)C(O)C2(F)F)c(=O)n1 (stereo not given) + NC1CC1c1ccc(-c2cccc(O)c2)cc1 was tested, and the IC50 (second compound 0.1 µM) was > 300 nM, the IC50 (second compound 0.316 µM) was > 300 nM and the IC50 (second compound 1 µM) was > 300 nM. For the same molecule, the IC50 (second compound 3.16 µM) was > 300 nM, the IC50 (second compound 10 µM) was > 300 nM and the viability, T/C [1] was 76.7%. It also gave a viability, T/C [2] of 68.7%, a viability, T/C [3] of 63.3% and a viability, T/C [4] of 54%. The viability, T/C [5] was 64.9%, the viability, T/C [6] was 58% and the viability, T/C [7] was 65.9%. The viability, T/C [8] was 54.7%, the viability, T/C [9] was 55.7% and the viability, T/C [10] was 57.4%. It also gave a viability, T/C [11] of 54.3%, a viability, T/C [12] of 64.2% and a viability, T/C [13] of 62.1%. For the same molecule, the viability, T/C [14] was 64.2%, the viability, T/C [15] was 57.5% and the viability, T/C [16] was 55.5%. The viability, T/C [17] was 58.5%, the viability, T/C [18] was 61.3% and the viability, T/C [19] was 65.3%. The viability, T/C [20] was 58.3%, the viability, T/C [21] was 51.4% and the viability, T/C [22] was 52%. It also gave a viability, T/C [23] of 56.2%, a viability, T/C [24] of 47.3% and a viability, T/C [25] of 62.1%. For the same molecule, the viability, T/C [26] was 57.7%, the viability, T/C [27] was 51.1% and the viability, T/C [28] was 60.1%. It also gave a viability, T/C [29] of 48.5% and a viability, T/C [30] of 51.2%.

With O=C(c1cc(Cc2n[nH]c(=O)c3ccccc23)ccc1F)N1CCN(C(=O)C2CC2)CC1 + NC1CC1c1ccc(-c2cccc(O)c2)cc1 the IC50 (second compound 0.1 µM) was 8950 nM, the IC50 (second compound 0.316 µM) was 5660 nM and the IC50 (second compound 1 µM) was 6290 nM. The IC50 (second compound 3.16 µM) was 3740 nM, the IC50 (second compound 10 µM) was > 10000 nM and the viability, T/C (second compound 0.1 µM, first compound 0.0316 µM) was 78.1%. It also gave a viability, T/C (second compound 0.1 µM, first compound 0.1 µM) of 87%, a viability, T/C (second compound 0.1 µM, first compound 0.316 µM) of 92.7% and a viability, T/C (second compound 0.1 µM, first compound 1 µM) of 72.9%. It also gave a viability, T/C (second compound 0.1 µM, first compound 3.16 µM) of 61.4%, a viability, T/C (second compound 0.1 µM, first compound 10 µM) of 48.2% and a viability, T/C (second compound 0.316 µM, first compound 0.0316 µM) of 84.5%. For the same molecule, the viability, T/C (second compound 0.316 µM, first compound 0.1 µM) was 76.1%, the viability, T/C (second compound 0.316 µM, first compound 0.316 µM) was 78% and the viability, T/C (second compound 0.316 µM, first compound 1 µM) was 67.5%. The viability, T/C (second compound 0.316 µM, first compound 3.16 µM) was 54.9%, the viability, T/C (second compound 0.316 µM, first compound 10 µM) was 44.1% and the viability, T/C (second compound 1 µM, first compound 0.0316 µM) was 81.4%. It also gave a viability, T/C (second compound 1 µM, first compound 0.1 µM) of 74.4%, a viability, T/C (second compound 1 µM, first compound 0.316 µM) of 70% and a viability, T/C (second compound 1 µM, first compound 1 µM) of 65.1%. For the same molecule, the viability, T/C (second compound 1 µM, first compound 3.16 µM) was 56.8%, the viability, T/C (second compound 1 µM, first compound 10 µM) was 45.4% and the viability, T/C (second compound 3.16 µM, first compound 0.0316 µM) was 72.1%. The viability, T/C (second compound 3.16 µM, first compound 0.1 µM) was 63.4%, the viability, T/C (second compound 3.16 µM, first compound 0.316 µM) was 68.3% and the viability, T/C (second compound 3.16 µM, first compound 1 µM) was 58.4%. For the same molecule, the viability, T/C (second compound 3.16 µM, first compound 3.16 µM) was 52.9%, the viability, T/C (second compound 3.16 µM, first compound 10 µM) was 38.9% and the viability, T/C (second compound 10 µM, first compound 0.0316 µM) was 66.9%. For the same molecule, the viability, T/C (second compound 10 µM, first compound 0.1 µM) was 66.8%, the viability, T/C (second compound 10 µM, first compound 0.316 µM) was 63% and the viability, T/C (second compound 10 µM, first compound 1 µM) was 57.9%. For the same molecule, the viability, T/C (second compound 10 µM, first compound 3.16 µM) was 52.7% and the viability, T/C (second compound 10 µM, first compound 10 µM) was 51.3%.
